# Results as given in patent US12435060B2, “Acylamino bridged heterocyclic compound, and composition and application thereof” (BEIJING SCITECH-MQ PHARMACEUTICALS LIMITED, priority 2019, dated 2025).
# System: HT29 cells
# Assay: Inhibition of cell necrosis (CCK8 method), induced programmed necrosis of HT29 cells
# Type: cell-based
# Conditions: Homo sapiens, HT-29; rescue from necrosis induced by TNF-α 20 ng/mL, AT-406 1 μM, Z-VAD-FMK 20 μM; 16-20 hours; CCK-8, OD 450 nm
# Summary of the method: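 Rescue from programmed necrosis was scored by CCK-8 absorbance at 450 nm after 16-20 h of TNF-α (20 ng/mL), AT-406 (1 μM) and Z-VAD-FMK (20 μM) at 37 °C, 5% CO2. HT29 cells had received compound 30 min earlier across nine 4-fold dilutions (top 25000 nM final). IC50 came from % inhibition relative to uninduced and induced-only wells.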
row,Structure (SMILES),IC50
1,"O=C(Nc1cc(-c2cc(OCCCCO)ccc2C(F)(F)F)ccn1)c1nnc(Cc2ccccc2F)[nH]1 [Example 273, 5-(2-fluorobenzyl)-N-(4-(5-(4-hydroxybutoxy)-2-(trifluoromethyl)phenyl)pyridin-2-yl)-4H-1,2,4-triazole-3-carboxamide]",≤ 100 nM
2,"Cc1ccc(OCCOCC(C)C)cc1-c1ccnc(NC(=O)c2nnc(Cc3ccccc3)[nH]2)c1 [Example 70, 5-benzyl-N-(4-(5-(2-isobutoxyethoxy)-2-methylphenyl)pyridin-2-yl)-4H-1,2,4-triazole-3-carboxamide]",≤ 100 nM
3,"Cc1ccc(OCC(N)=O)cc1-c1ccnc(NC(=O)c2nnc(Cc3ccccc3)[nH]2)c1 [Example 116, N-(4-(5-(2-amino-2-oxoethoxy)-2-methylphenyl)pyridin-2-yl)-5-benzyl-4H-1,2,4-triazole-3-carboxamide]",100 to 1000 nM
4,"Cc1ccc(OCCC2CCOCC2)cc1-c1cc(NC(=O)c2nnc(CC3CCCC3)[nH]2)ncn1 [Example 447, 5-(cyclopentylmethyl)-N-(6-(2-methyl-5-(2-(tetrahydro-2H-pyran-4-yl)ethoxy)phenyl)pyrimidin-4-yl)-4H-1,2,4-triazole-3-carboxamide]",≤ 100 nM
5,"Cc1ccc(OCCCC(C)(C)O)cc1-c1cc(NC(=O)c2nnc(Cc3ccccc3F)[nH]2)ncn1 [Example 433, 5-(2-fluorobenzyl)-N-(6-(5-((4-hydroxy-4-methylpentyl)oxy)-2-methylphenyl)pyrimidin-4-yl)-4H-1,2,4-triazole-3-carboxamide]",≤ 100 nM
6,"Cc1cnc(NC(=O)c2nnc(CC3CCCCC3)[nH]2)cc1-c1cc(OCCCC(C)(C)O)ccc1Cl [Example 414, N-(4-(2-chloro-5-((4-hydroxy-4-methylpentyl)oxy)phenyl)-5-methylpyridin-2-yl)-5-(cyclohexylmethyl)-4H-1,2,4-triazole-3-carboxamide]",100 to 1000 nM
7,"Cc1ccc(OCCCC(C)(C)O)cc1-c1cc(NC(=O)c2nnc(Cc3ccccc3F)[nH]2)ncc1C [Example 240, 5-(2-fluorobenzyl)-N-(4-(5-((4-hydroxy-4-methylpentyl)oxy)-2-methylphenyl)-5-methylpyridin-2-yl)-4H-1,2,4-triazole-3-carboxamide]",100 to 1000 nM
8,CCC(O)(CC)CCCOc1ccc(C)c(-c2ccnc(NC(=O)c3nnc(Cc4ccccc4)[nH]3)c2)c1 [Example 165],≤ 100 nM
9,"CC(C)(O)CCCOc1ccc(Cl)c(-c2ccnc(NC(=O)c3nnc(Cc4ccccc4F)[nH]3)c2)c1 [Example 338, N-(4-(2-chloro-5-((4-hydroxy-4-methylpentyl)oxy)phenyl)pyridin-2-yl)-5-(2-fluorobenzyl)-4H-1,2,4-triazole-3-carboxamide]",≤ 100 nM
10,"O=C(Nc1cc(-c2cc(OCC3CCOCC3)ccc2Cl)ncn1)c1nnc(CC2CCCCC2)[nH]1 [Example 469, 5-(cyclohexylmethyl)-N-(6-(2-chloro-5-((tetrahydro-2H-pyran-4-yl)methoxy)phenyl)pyrimidin-4-yl)-4H-1,2,4-triazole-3-carboxamide]",≤ 100 nM
11,"CCOCCOc1ccc(C)c(-c2ccnc(NC(=O)c3nnc(Cc4ccccc4)[nH]3)c2)c1 [Example 131, 5-benzyl-N-(4-(5-(2-ethoxyethoxy)-2-methylphenyl)pyridin-2-yl)-4H-1,2,4-triazole-3-carboxamide]",≤ 100 nM
12,"CCOCCN(C)c1ccc(C)c(-c2ccnc(NC(=O)c3nnc(Cc4ccccc4)[nH]3)c2)c1 [Example 56, 5-benzyl-N-(4-(5-((2-ethoxyethyl)(methyl)amino)-2-methylphenyl)pyridin-2-yl)-4H-1,2,4-triazole-3-carboxamide]",100 to 1000 nM
13,"COc1ccc(C(C)C)cc1-c1ccnc(NC(=O)c2nnc(Cc3ccccc3)[nH]2)c1 [Example 17, 5-benzyl-N-(4-(5-isopropyl-2-methoxyphenyl)pyridin-2-yl)-4H-1,2,4-triazole-3-carboxamide]",> 10000 nM
14,"COCCCOc1ccc(Cl)c(-c2ccnc(NC(=O)c3nnc(Cc4ccccc4)[nH]3)c2)c1 [Example 395, 5-benzyl-N-(4-(2-chloro-5-(3-methoxypropoxy)phenyl)pyridin-2-yl)-4H-1,2,4-triazole-3-carboxamide]",≤ 100 nM
15,"O=C(Nc1cc(-c2cc(OCCC3CCOCC3)ccc2F)c(Cl)cn1)c1nnc(CC2CCCCC2)[nH]1 [Example 334, N-(5-chloro-4-(2-fluoro-5-(2-(tetrahydro-2H-pyran-4-yl)ethoxy)phenyl)pyridin-2-yl)-5-(cyclohexylmethyl)-4H-1,2,4-triazole-3-carboxamide]",100 to 1000 nM
16,"Cc1cnc(NC(=O)c2nnc(Cc3ccccc3F)[nH]2)cc1-c1cc(OCCCC(C)(C)O)ccc1Cl [Example 413, N-(4-(2-chloro-5-((4-hydroxy-4-methylpentyl)oxy)phenyl)-5-methylpyridin-2-yl)-5-(2-fluorobenzyl)-4H-1,2,4-triazole-3-carboxamide]",100 to 1000 nM
17,"Cc1ccc(C#N)cc1-c1ccnc(NC(=O)c2nnc(Cc3ccccc3)[nH]2)c1 [Example 35, 5-benzyl-N-(4-(5-cyano-2-methylphenyl)pyridin-2-yl)-4H-1,2,4-triazole-3-carboxamide]",≤ 100 nM
18,"Cc1ccc(OCC2CCOCC2)cc1-c1cc(NC(=O)c2nnc(CC3CCCCC3)[nH]2)ncc1F [Example 497, 5-(cyclohexylmethyl)-N-(5-fluoro-4-(2-methyl-5-((tetrahydro-2H-pyran-4-yl)methoxy)phenyl)pyridin-2-yl)-4H-1,2,4-triazole-3-carboxamide]",≤ 100 nM
19,"Cc1c(OCCCO)cccc1-c1ccnc(NC(=O)c2nnc(Cc3ccccc3)[nH]2)c1 [Example 97, 5-benzyl-N-(4-(3-(3-hydroxylpropoxy)-2-methylphenyl)pyridin-2-yl)-4H-1,2,4-triazole-3-carboxamide]",100 to 1000 nM
20,"Cc1c(OCCO)cccc1-c1ccnc(NC(=O)c2nnc(Cc3ccccc3)[nH]2)c1 [Example 95, 5-benzyl-N-(4-(3-(2-hydroxyethoxy)-2-methylphenyl)pyridin-2-yl)-4H-1,2,4-triazole-3-carboxamide]",100 to 1000 nM
21,"CC(C)(O)CCCCOc1ccc(C(F)(F)F)c(-c2ccnc(NC(=O)c3nnc(CC4CCCC4)[nH]3)c2)c1 [Example 270, 5-(cyclopentylmethyl)-N-(4-(5-((5-hydroxyl-5-methylhexyl)oxy)-2-(trifluoromethyl)phenyl)pyridin-2-yl)-4H-1,2,4-triazole-3-carboxamide]",≤ 100 nM
22,"CC(C)(O)CCCOc1ccc(Cl)c(-c2ccnc(NC(=O)c3nnc(Cc4cc(C(F)(F)F)ccc4F)[nH]3)c2)c1 [Example 347, N-(4-(2-chloro-5-((4-hydroxy-4-methylpentyl)oxy)phenyl)pyridin-2-yl)-5-(2-fluoro-5-(trifluoromethyl)benzyl)-4H-1,2,4-triazole-3-carboxamide]",100 to 1000 nM
23,"O=C(Nc1cc(-c2cc(OCCC3CCOCC3)ccc2C(F)(F)F)ccn1)c1nnc(Cc2ccccc2)[nH]1 [Example 305, 5-benzyl-N-(4-(5-(2-(tetrahydro-2H-pyran-4-yl)ethoxy)-2-(trifluoromethyl)phenyl)pyridin-2-yl)-4H-1,2,4-triazole-3-carboxamide]",≤ 100 nM
24,"O=C(Nc1cc(-c2cc(OCCCCCO)ccc2C(F)(F)F)ccn1)c1nnc(CC2CCCC2)[nH]1 [Example 277, 5-(cyclopentylmethyl)-N-(4-(5-((5-hydroxypentyl)oxy)-2-(trifluoromethyl)phenyl)pyridin-2-yl)-4H-1,2,4-triazole-3-carboxamide]",≤ 100 nM
